Results published in ChEMBL document CHEMBL1201862, “PubChem BioAssay data set” (2004).
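Method: 48-hour compound exposure of cells in 96-well plates, five concentrations, linear interpolation of endpoints. GI50: concentration for 50% inhibition of growth.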 The source made the active and inactive calls. Rule as the data show it: active = GI50 up to about 1.1 µM and inactive = higher.

Experiments:
Experiment in all cases: NCI tumour cell line growth inhibition, 48 h
[1] = test system: 786-0
[2] = test system: A498
[3] = test system: A549
[4] = test system: ACHN
[5] = test system: BT-549
[6] = test system: CAKI-1
[7] = test system: CCRF-CEM
[8] = test system: COLO 205
[9] = test system: DU-145
[10] = test system: EKVX
[11] = test system: HCC 2998
[12] = test system: HCT-15
[13] = test system: HL-60
[14] = test system: HOP-62
[15] = test system: HOP-92
[16] = test system: HT-29
[17] = test system: Hs-578T
[18] = test system: IGROV-1
[19] = test system: K562
[20] = test system: KM12
[21] = test system: LOX IMVI
[22] = test system: M14
[23] = test system: MCF7
[24] = test system: MDA-MB-231
[25] = test system: MDA-MB-435
[26] = test system: MDA-N
[27] = test system: MOLT-4
[28] = test system: Malme-3M
[29] = test system: NCI-H23
[30] = test system: NCI-H460
[31] = test system: NCI-H522
[32] = test system: NCI/ADR-RES
[33] = test system: OVCAR-3
[34] = test system: OVCAR-4
[35] = test system: OVCAR-5
[36] = test system: OVCAR-8
[37] = test system: PC-3
[38] = test system: RPMI-8226
[39] = test system: RXF 393
[40] = test system: SF-268
[41] = test system: SF-295
[42] = test system: SF-539
[43] = test system: SK-MEL-28
[44] = test system: SK-MEL-2
[45] = test system: SK-MEL-5
[46] = test system: SK-OV-3
[47] = test system: SN12C
[48] = test system: SNB-19
[49] = test system: SW-620
[50] = test system: T47D
[51] = test system: TK-10
[52] = test system: U-251
[53] = test system: UACC-257
[54] = test system: UACC-62

Compound: CCOP(=O)(OCC)C(Cc1ccc(Cl)cc1)NS(=O)(=O)c1ccc(C)cc1 (centres undefined)
- GI50 [1]: > 100 µM (inactive)
- GI50 [2]: > 100 µM (inactive)
- GI50 [3]: > 100 µM (inactive)
- GI50 [4]: > 100 µM (inactive)
- GI50 [5]: > 100 µM (inactive)
- GI50 [6]: > 100 µM (inactive)
- GI50 [7]: > 100 µM (inactive)
- GI50 [8]: > 100 µM (inactive)
- GI50 [9]: > 100 µM (inactive)
- GI50 [10]: > 100 µM (inactive)
- GI50 [11]: > 100 µM (inactive)
- GI50 [12]: > 100 µM
- GI50 [13]: > 100 µM (inactive)
- GI50 [14]: > 100 µM (inactive)
- GI50 [15]: > 100 µM (inactive)
- GI50 [16]: > 100 µM (inactive)
- GI50 [17]: > 100 µM (inactive)
- GI50 [18]: > 100 µM (inactive)
- GI50 [19]: > 100 µM (inactive)
- GI50 [20]: > 100 µM (inactive)
- GI50 [21]: > 100 µM (inactive)
- GI50 [22]: > 100 µM (inactive)
- GI50 [23]: > 100 µM (inactive)
- GI50 [24]: > 100 µM (inactive)
- GI50 [25]: > 100 µM (inactive)
- GI50 [26]: > 100 µM (inactive)
- GI50 [27]: > 100 µM (inactive)
- GI50 [28]: > 100 µM (inactive)
- GI50 [29]: > 100 µM (inactive)
- GI50 [30]: > 100 µM (inactive)
- GI50 [31]: 67.9 µM (inactive)
- GI50 [32]: > 100 µM (inactive)
- GI50 [33]: > 100 µM (inactive)
- GI50 [34]: > 100 µM (inactive)
- GI50 [35]: > 100 µM (inactive)
- GI50 [36]: > 100 µM (inactive)
- GI50 [37]: > 100 µM (inactive)
- GI50 [38]: 98.9 µM (inactive)
- GI50 [39]: > 100 µM (inactive)
- GI50 [40]: > 100 µM (inactive)
- GI50 [41]: > 100 µM (inactive)
- GI50 [42]: > 100 µM (inactive)
- GI50 [43]: > 100 µM (inactive)
- GI50 [44]: > 100 µM (inactive)
- GI50 [45]: > 100 µM (inactive)
- GI50 [46]: > 100 µM (inactive)
- GI50 [47]: 67.6 µM (inactive)
- GI50 [48]: > 100 µM (inactive)
- GI50 [49]: > 100 µM (inactive)
- GI50 [50]: > 100 µM (inactive)
- GI50 [51]: > 100 µM (inactive)
- GI50 [52]: > 100 µM (inactive)
- GI50 [53]: 35.5 µM (inactive)
- GI50 [54]: > 100 µM (inactive)
